Data as given in PubChem BioAssay (NCI).
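Cultured in 96-well plates, cells were exposed to test compound for 48 hours across five concentrations. TGI denotes the concentration required for complete inhibition of growth.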

Key:
Experiment in all cases: NCI tumour cell line growth inhibition, 48 h
[1] = system: SN12C renal
[2] = system: A549 NSCLC
[3] = system: MOLT-4 leukemia
[4] = system: SNB-75 CNS
[5] = system: NCI/ADR-RES ovarian
[6] = system: NCI-H460 lung
[7] = system: HOP-18 NSCLC
[8] = system: IGROV1 ovarian
[9] = system: MALME-3M melanoma
[10] = system: SK-OV-3 ovarian
[11] = system: K-562 leukemia
[12] = system: HT29 colon
[13] = system: SW-620 colon
[14] = system: RXF 393 renal
[15] = system: HOP-62 NSCLC
[16] = system: SNB-19 CNS
[17] = system: SN12K1 renal
[18] = system: MCF7 breast
[19] = system: NCI-H23 lung
[20] = system: HCT-116 colon
[21] = system: KM12 colon
[22] = system: SF-268 CNS
[23] = system: OVCAR-8 ovarian
[24] = system: HCC-2998 colon
[25] = system: UO-31 renal
[26] = system: CCRF-CEM leukemia
[27] = system: KM20L2 colon
[28] = system: LOX IMVI melanoma
[29] = system: OVCAR-4 ovarian
[30] = system: OVCAR-5 ovarian
[31] = system: SF-295 CNS
[32] = system: SK-MEL-5 melanoma
[33] = system: OVCAR-3 ovarian
[34] = system: COLO 205 colon
[35] = system: SNB-78 CNS
[36] = system: UACC-257 melanoma
[37] = system: SK-MEL-2 melanoma
[38] = system: UACC-62 melanoma
[39] = system: NCI-H226 lung
[40] = system: XF 498 CNS
[41] = system: DLD-1 colon
[42] = system: DMS 114 small cell lung
[43] = system: DMS 273 small cell lung
[44] = system: M19-MEL melanoma
[45] = system: RPMI-8226 leukemia
[46] = system: HL-60(TB) leukemia
[47] = system: A498 renal
[48] = system: U251 CNS
[49] = system: SK-MEL-28 melanoma
[50] = system: HCT-15 colon
[51] = system: P388 leukemia
[52] = system: 786-0 renal
[53] = system: M14 melanoma
[54] = system: TK-10 renal
[55] = system: ACHN renal
[56] = system: EKVX NSCLC
[57] = system: MDA-N
[58] = system: SF-539 CNS
[59] = system: RXF-631 renal
[60] = system: DU-145 prostate
[61] = system: SR leukemia
[62] = system: HS 578T breast
[63] = system: HOP-92 NSCLC
[64] = system: CAKI-1 renal
[65] = system: BT-549 breast
[66] = system: NCI-H522 lung
[67] = system: LXFL 529 NSCLC
[68] = system: PC-3 prostate
[69] = system: T-47D breast
[70] = system: MDA-MB-231 breast
[71] = system: MDA-MB-435

CCOCCOc1ccc(OCCOCC)cc1
TGI [1]: 31.8 µM
TGI [2]: > 100 µM
TGI [3]: > 43 µM
TGI [4]: 52.8 µM
TGI [5]: 39.3 µM
TGI [6]: > 73.7 µM
TGI [7]: 61.3 µM
TGI [8]: 38 µM
TGI [9]: 45.8 µM
TGI [10]: > 100 µM
TGI [11]: 24.2 µM
TGI [12]: 38.9 µM
TGI [13]: 40.1 µM
TGI [14]: 33 µM
TGI [15]: > 100 µM
TGI [16]: > 100 µM
TGI [17]: 31.6 µM
TGI [18]: 32.9 µM
TGI [19]: > 100 µM
TGI [20]: 33.4 µM
TGI [21]: > 100 µM
TGI [22]: 36 µM
TGI [23]: 35.4 µM
TGI [24]: > 100 µM
TGI [25]: 26.9 µM
TGI [26]: 9.84 µM
TGI [27]: 47.2 µM
TGI [28]: 33.8 µM
TGI [29]: 20.7 µM
TGI [30]: > 100 µM
TGI [31]: > 57.2 µM
TGI [32]: > 54 µM
TGI [33]: > 49.3 µM
TGI [34]: 33.3 µM
TGI [35]: > 57.7 µM
TGI [36]: 32.3 µM
TGI [37]: > 63.7 µM
TGI [38]: 38.7 µM
TGI [39]: > 73.1 µM
TGI [40]: 30.1 µM
TGI [41]: 28.2 µM
TGI [42]: 17.1 µM
TGI [43]: > 58.4 µM
TGI [44]: > 62.5 µM
TGI [45]: 26.4 µM
TGI [46]: 12.7 µM
TGI [47]: > 61.8 µM
TGI [48]: > 100 µM
TGI [49]: 40.8 µM
TGI [50]: 40.3 µM
TGI [51]: > 100 µM

O=C1CCC(C(=O)O)C2=C1CCCC2 (stereo not given)
TGI [1]: > 100 µM
TGI [52]: > 100 µM
TGI [2]: > 100 µM
TGI [53]: > 100 µM
TGI [3]: > 100 µM
TGI [4]: > 100 µM
TGI [54]: > 100 µM
TGI [5]: > 100 µM
TGI [55]: > 100 µM
TGI [6]: > 100 µM
TGI [7]: > 100 µM
TGI [8]: > 100 µM
TGI [9]: > 100 µM
TGI [10]: > 100 µM
TGI [56]: > 100 µM
TGI [57]: > 100 µM
TGI [11]: > 100 µM
TGI [58]: > 100 µM
TGI [12]: > 100 µM
TGI [13]: > 100 µM
TGI [14]: > 100 µM
TGI [15]: > 100 µM
TGI [16]: > 100 µM
TGI [59]: > 100 µM
TGI [18]: > 100 µM
TGI [19]: > 100 µM
TGI [60]: > 100 µM
TGI [61]: > 100 µM
TGI [20]: > 100 µM
TGI [21]: > 100 µM
TGI [62]: > 100 µM
TGI [22]: > 100 µM
TGI [23]: > 100 µM
TGI [24]: > 100 µM
TGI [63]: > 100 µM
TGI [64]: > 100 µM
TGI [25]: > 100 µM
TGI [26]: > 100 µM
TGI [27]: > 100 µM
TGI [28]: > 100 µM
TGI [29]: > 100 µM
TGI [30]: > 100 µM
TGI [31]: > 100 µM
TGI [32]: > 100 µM
TGI [33]: > 100 µM
TGI [65]: > 100 µM
TGI [66]: > 100 µM
TGI [67]: > 100 µM
TGI [34]: > 100 µM
TGI [35]: > 100 µM
TGI [68]: > 100 µM
TGI [36]: > 100 µM
TGI [37]: > 100 µM
TGI [38]: > 100 µM
TGI [39]: > 21.5 µM
TGI [69]: > 100 µM
TGI [40]: > 100 µM
TGI [41]: > 100 µM
TGI [42]: > 100 µM
TGI [70]: > 100 µM
TGI [43]: > 100 µM
TGI [44]: > 100 µM
TGI [45]: > 100 µM
TGI [46]: > 100 µM
TGI [47]: > 100 µM
TGI [48]: > 29.8 µM
TGI [49]: > 100 µM
TGI [71]: > 100 µM
TGI [50]: > 100 µM
